Data as given in patent publication US9688638B2, “Opioid agonists and uses thereof” (priority 2013, dated 2017).
pEC50, pIC50, pKi: −log10 of the molar value. Read-outs that look alike come from different tables or passages of the source.

Legend:
[1] = system: Swiss Albino or CD-1 male mice; assay: Acetic acid writhing (AAW) analgesic assay; assay type: in vivo
Method: Approaches for evaluating analgesic activity of a compound of the present invention in vivo include a “writhing test.” Briefly, the compound to be tested is administered [by, for example, injection (e.g., subcutaneous injection)] to the mouse. Thereafter, a 0.5% acetic acid solution is administered (i.p.) to a mouse and the numbers of writhing responses are counted for twenty minutes. Antinociception is quantified as reduction in the number of writhes respective to vehicle.
An analgesic assay was used to determine whether a given compound can reduce and/or prevent visceral pain in mice. The assay utilizes Swiss Albino or CD-1 male mice (5-10 mice per group), each mouse being approximately 0.015-0.030 kg on the study day. Mice were treated according to standard protocols.
The animal was given an intraperitoneal (IP) injection of an irritant (acetic acid) that induces “writhing” which may include: contractions of the abdomen, twisting and turning of the trunk, arching of the back and the extension of the hindlimbs. Mice are given a single IP injection (0.1 mL/10 g bodyweight) of a 0.5% acetic acid solution. After the injection the animals were returned to their observation enclosure and their behavior was observed. Contractions were counted between 0 and 20 minutes after the injection. The animals were used once. In certain instances, the test articles were administered at multiple doses to determine a dose response curve.
Table 4 provides the results for certain compounds of the present invention that were administered subcutaneously. Table 5 provides the results for certain compounds of the present invention that were administered orally.

[2] = target: recombinant human kappa (KOR) opioid receptor (Homo sapiens (Human), UniProt P41145); assay: biochemical; assay type: binding
[3] = target: KOR (Homo sapiens (Human), UniProt P41145); assay: cAMP accumulation assay, forskolin-stimulated CHO-K1 cells stably expressing KOR; assay type: cell-based; conditions: for EC50: inhibition of cAMP accumulation, forskolin 20 μM, read-out: EC50 cAMP (nM)-KOR
Method: (§1) Inhibition of cAMP accumulation by select compounds was measured in forskolin-stimulated CHO-K1 cells stably expressing KOR. CHO-K1 cells stably expressing KOR were harvested using Invitrogen Cell Dissociation Buffer, and then centrifuged at 1200 rpm for five minutes. The supernatant was aspirated and cells were resuspended in assay buffer to a density of 4×10^5 cells/mL. 25 μL of cells were added into a white half-area 96 well plate. Fourteen point serial dilutions of test compounds were carried out in assay buffer (PBS with 0.5 mM IBMX). Ketazocine was used as a positive control for each assay. 12.5 μL of compound was added to the cells in duplicate for each test concentration. The cells were then stimulated with 12.5 μL forskolin at a final concentration 20 μM. Cells were incubated for 45 minutes in a 37° C., 5% CO2 water jacketed incubator. CisBio HTRF cAMP assay reagent was used for cAMP quantitation. Two hours after substrate addition, signal at 665/615 nm was measured using the Perkin Elmer Victor X4 HTRF reader. Data analysis was done using GraphPad Prism, sigmoidal dose-response (variable slope) curve fitting.

[4] = target: MOR (Homo sapiens (Human), UniProt P35372); assay: cAMP accumulation assay, forskolin-stimulated CHO-K1 cells stably expressing MOR; assay type: cell-based; conditions: inhibition of cAMP accumulation
Method: as §1
Using a similar approach, inhibition of cAMP accumulation by select compounds was also determined in forskolin-simulated CHO-K1 cells stably expressing MOR (wherein for this assay a density of 8×10^5 cells/mL was used and the positive control was DAMGO). Certain compounds of the present invention were tested as described above.

[5] = system: Male Swiss Albino mice; assay: Locomotor activity; assay type: in vivo; conditions: oral, 30 min pre-dose, 20 min observation
Method: The locomotor activity (LMA) model may be conducted to measure changes in activity following test article administration, which may be used to assess the CNS effects of the drug. In brief, at a predetermined time post-dose, rats are placed into observation chambers which are equipped with infrared photocells that can sense motion in the x, y, and z planes. Activity is measured as the number of photobeam breaks in a given plane (horizontal or vertical) or total distance traveled.
Male Swiss Albino mice were treated orally with vehicle (0.5% HPMC+0.1% Tween80), ketazocine, Compound 12 (0.3, 3 and 30 mg/kg) or Compound 20 (0.3, 3 and 30 mg/kg) thirty minutes prior to placement in the locomotor activity chamber. Total distance traveled was measured over the twenty minute observation time following placement in the locomotor activity chamber. Data are normalized relative to percent distance traveled in the vehicle group. The efficacy of Compound 12 (reported as percent distance traveled in comparison to vehicle) was 88.85%, 83.74% and 0.08% at 0.3, 3 and 30 mg/kg dosages, respectively, while the locomotor activity of Compound 20 (reported as percent distance traveled in comparison to vehicle) was 100%, 88% and 0.03% at 0.3, 3 and 30 mg/kg dosages, respectively.

[6] = target: recombinant human mu (MOR) opioid receptor (Homo sapiens (Human), UniProt P35372); assay: Radioligand competition binding assay, mu opioid receptor; conditions: [3H]Naloxone 4 nM, CHO-K1 membranes
Method: The binding affinities of certain compounds of the present invention were evaluated using radioligand binding assays in membranes prepared from CHO-K1 cells expressing recombinant human kappa (KOR) or mu (MOR) opioid receptors.
Competition binding experiments were conducted by incubating membrane protein to equilibrium in triplicate in the presence of a fixed concentration of radioligand and increasing concentrations of test compound for evaluation of binding to KOR or single concentration (10 μM) of test compound for evaluation of binding to MOR in 101 μL final volume. The radioligands used were specific for each receptor type, and the assay conditions are described in Table 1. Following incubations, the membranes were rapidly filtered through GF/B filter plate (presoaked with 0.5% polyethyleneimine), washed five times with cold 50 mM Tris-HCl, pH 7.5, and the bound radioactivity was then measured by liquid scintillation counting. Non-specific binding was measured in the presence of excess ligand; this value was subtracted from the total binding to yield the specific binding at each test concentration.
Ki (affinity of test compound) was obtained using the Cheng Prusoff correction using experimental Kd (affinity of radioligand) values that were previously determined under these assay conditions. For MOR binding, compounds were tested at one concentration, 10 μM, to evaluate its ability to inhibit specific radioligand binding. The values are expressed as percent inhibition of specific binding and greater than 50% inhibition of binding was considered to be significant.
With respect to determining MOR binding, an approach similar to one used for KOR binding was used.

[7] = Mus musculus, sc, 20 min, subcutaneous, read-out: AAW % Efficacy
[8] = Mus musculus, po, 20 min, oral, read-out: AAW % Efficacy
[9] = Cheng Prusoff correction, [3H]Diprenorphine 1 nM, CHO-K1 membranes, read-out: Kappa receptor binding Ki

Row | SMILES | inhibition in vivo at 10 mg/kg [1, 7] | pEC50 [3] | EC50 [4] | inhibition in vivo at 0.1 mg/kg [1, 8] | inhibition in vivo at 1 mg/kg [1, 8] | inhibition in vivo at 10 mg/kg [1, 8] | pKi [2, 9] | percent distance traveled in comparison to vehicle ([5]; 0.3 mg/kg) | percent distance traveled in comparison to vehicle ([5]; 3 mg/kg) | percent distance traveled in comparison to vehicle ([5]; 30 mg/kg) | EC50 [3] | pKi [6] | also measured
1 | COCCOCCOCCOc1ccc2c(c1)[C@]1(C)CCN(CC3CC3)[C@H](C2=O)[C@@H]1C [Compound 4, (2S,6R,11R)-3-(Cyclopropylmethyl)-8-{2-[2-(2-methoxyethoxy)ethoxy]ethoxy}-6,11-dimethyl-3,4,5,6-tetrahydro-2,6-methano-3-benzazocin-1(2H)-one] | 39.7% | 8.03 | – | – | – | – | – | – | – | – | – | – | inhibition in vivo at 200 mg/kg ([1]; Mus musculus, po, 20 min, oral, 200 mg/kg, read-out: AAW % Efficacy): 3.8%; inhibition in vivo at 3 mg/kg ([1]; Mus musculus, sc, 20 min, subcutaneous, 3 mg/kg, read-out: AAW % Efficacy): 0%; inhibition in vivo at 30 mg/kg ([1]; Mus musculus, sc, 20 min, subcutaneous, 30 mg/kg, read-out: AAW % Efficacy): 100%; pIC50 [2]: 6.06; pKi [2]: 6.69
2 | COCCOCCOCCOCCOCCNc1ccc(Nc2ccc3c(c2)[C@]2(C)CCN(CC4CC4)[C@H](C3=O)[C@@H]2C)cc1 [Compound 12, (2S,6R,11R)-8-((4-(2,5,8,11,14-pentaoxahexadecan-16-ylamino)phenyl)amino)-3-(cyclopropylmethyl)-6,11-dimethyl-3,4,5,6-tetrahydro-2,6-methanobenzo[d]azocin-1(2H)-one] | – | – | 189 nM | 22.5% | 56.9% | 97.2% | 8.30 | 88.85% | 83.74% | 0.08% | 7 nM | 7.23 | AAW % Efficacy ([1]; subcutaneous, 3 mg/kg): 68.6%; AAW percent efficacy, outlier data removed ([1]; subcutaneous, 3 mg/kg, outlier data removed): 65.09; AAW % Efficacy ([1]; subcutaneous, 30 mg/kg): 100.0%
3 | C[C@H]1[C@H]2C(=O)c3ccc(Nc4ccc(NCCOCCOCCOCCOCCOC(F)(F)F)cc4)cc3[C@]1(C)CCN2CC1CC1 [Compound 20, (2S,6R,11R)-3-(cyclopropylmethyl)-6,11-dimethyl-8-((4-((1,1,1-trifluoro-2,5,8,11,14-pentaoxahexadecan-16-yl)amino)phenyl)amino)-3,4,5,6-tetrahydro-2,6-methanobenzo[d]azocin-1(2H)-one] | 88.1% | – | 128 nM | – | – | – | 8.54 | 100% | 88% | 0.03% | 6.1 nM | 7.35 | inhibition in vivo at 0.3 mg/kg ([1]; Mus musculus, po, 20 min, oral, 0.3 mg/kg, read-out: AAW % Efficacy): 39.1%; inhibition in vivo at 3 mg/kg ([1]; Mus musculus, po, 20 min, oral, 3 mg/kg, read-out: AAW % Efficacy): 79.5%; inhibition in vivo at 30 mg/kg ([1]; Mus musculus, po, 20 min, oral, 30 mg/kg, read-out: AAW % Efficacy): 100%
4 | C[C@H]1[C@H]2C(=O)c3ccc(NC(C)(C)CO)cc3[C@]1(C)CCN2CC1CC1 [Compound 23, (2S,6R,11R)-3-(Cyclopropylmethyl)-8-((1-hydroxy-2-methylpropan-2-yl)amino)-6,11-dimethyl-3,4,5,6-tetrahydro-2,6-methanobenzo[d]azocin-1(2H)-one] | – | – | 3290 nM | – | – | – | 5.98 | – | – | – | 395 nM | 5.10 | –
5 | C[C@H]1[C@H]2C(=O)c3ccc(NC(CO)CO)cc3[C@]1(C)CCN2CC1CC1 [Compound 24, (2S,6R,11R)-3-(cyclopropylmethyl)-8-((1,3-dihydroxypropan-2-yl)amino)-6,11-dimethyl-3,4,5,6-tetrahydro-2,6-methanobenzo[d]azocin-1(2H)-one] | – | – | 598 nM | – | – | – | 6.31 | – | – | – | 107 nM | 5.74 | –
6 | C[C@H]1[C@H]2C(=O)c3ccc(O)cc3[C@]1(C)CCN2CC1CC1 [Ketazocine, (2S,6R,11R)-3-(cyclopropylmethyl)-8-hydroxy-6,11-dimethyl-3,4,5,6-tetrahydro-2,6-methanobenzo[d]azocin-1(2H)-one, reference compound] | – | 9.26 | – | 12.8% | 34.5% | 58.9% | 8.89 | – | – | – | – | – | inhibition in vivo at 100 mg/kg ([1]; Mus musculus, po, 20 min, oral, 100 mg/kg, read-out: AAW % Efficacy): 100%; inhibition in vivo at 0.01 mg/kg ([1]; Mus musculus, sc, 20 min, subcutaneous, 0.01 mg/kg, read-out: AAW % Efficacy): 10.6%; inhibition in vivo at 0.1 mg/kg [1, 7]: 50%; inhibition in vivo at 1 mg/kg [1, 7]: 100%; pIC50 ([2]; [3H]Diprenorphine 1 nM, CHO-K1 membranes, read-out: Kappa receptor binding IC50): 8.25; pIC50 [6]: 8.08
